Values joined by “and” are separate entries in the source; they are usually repeats but may differ in a detail not shown here. Equal entries are not always repeated.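 Following 48 hours of exposure in 96-well plates, responses at five concentrations were used to interpolate endpoints linearly. Abbreviation: GI50, concentration required for 50% inhibition of growth. TGI: concentration producing complete growth inhibition.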
What was measured:
Test in all cases: DTP human tumour cell line panel, 48 h
[1] = tested on: HCT-116 colon
[2] = tested on: HT29 colon
[3] = tested on: KM12 colon
[4] = tested on: HOP-92 NSCLC
[5] = tested on: NCI-H522 lung
[6] = tested on: MDA-MB-435
[7] = tested on: SN12C renal
[8] = tested on: MOLT-4 leukemia
[9] = tested on: M14 melanoma
[10] = tested on: TK-10 renal
[11] = tested on: NCI-H23 lung
[12] = tested on: ACHN renal

C/C(=N/NC(=S)N(Cc1ccccn1)Cc1ccccn1)c1cnccn1
TGI [1]: 14.2 µM | TGI [2]: 10.3 µM | TGI [3]: 19.7 µM | TGI [4]: > 37.6 µM | TGI [5]: 1.56 µM | TGI [6]: 35.6 µM | TGI [7]: 12.9 µM | TGI [8]: > 34.4 µM | TGI [9]: > 35.9 µM | TGI [10]: 19.2 µM | TGI [11]: 11.4 µM | TGI [12]: 2.39 µM

Cc1ccc(NC(=S)NNC(=O)c2cc(-c3ccccc3)nc3ccccc23)cc1C
TGI [1]: 36.9 µM | TGI [2]: 49.2 µM | TGI [3]: 80 µM | TGI [4]: 48.8 µM | TGI [5]: 50.8 µM | TGI [6]: 59.5 µM | TGI [7]: 38.1 µM | TGI [8]: 53.3 µM | TGI [9]: 33.8 µM | TGI [10]: 63.1 µM | TGI [11]: 48.2 µM | TGI [12]: 67.6 µM

CC1(C)SC2C(NC(=O)Cc3ccccc3)C(=O)N2C1C(=O)O (stereo not drawn)
TGI [1]: > 100 µM | TGI [2]: > 100 µM | TGI [3]: > 100 µM | TGI [4]: > 100 µM | TGI [5]: > 100 µM | TGI [6]: > 100 µM | TGI [7]: > 100 µM | TGI [8]: > 100 µM | TGI [9]: > 100 µM | TGI [10]: > 100 µM | TGI [11]: > 100 µM | TGI [12]: > 100 µM

COc1ccc(CN=C2Nc3ccncc3S(=O)(=O)N2c2ccccc2)cc1
TGI [1]: > 100 µM | TGI [2]: > 100 µM | TGI [3]: > 100 µM | TGI [4]: > 100 µM | TGI [5]: > 100 µM | TGI [6]: 80.7 µM | TGI [7]: > 100 µM | TGI [8]: 44.7 µM | TGI [9]: > 100 µM | TGI [10]: 59.9 µM | TGI [11]: > 100 µM | TGI [12]: > 100 µM

CCCCCC(/C=N/NC(N)=S)C(O)(C(F)(F)F)C(F)(F)F (stereo not drawn)
TGI [1]: > 10 µM | TGI [2]: > 10 µM | TGI [3]: > 10 µM | TGI [4]: > 10 µM | TGI [5]: > 10 µM | TGI [6]: > 10 µM | TGI [7]: > 10 µM | TGI [8]: > 10 µM | TGI [9]: > 10 µM | TGI [10]: > 10 µM | TGI [11]: > 10 µM | TGI [12]: > 10 µM

COc1ccc(S(=O)Cc2cc(OC)ccc2OC)cc1 (stereo not drawn)
TGI [1]: > 100 µM | TGI [2]: > 100 µM | TGI [3]: > 100 µM | TGI [4]: > 100 µM | TGI [5]: > 100 µM | TGI [6]: > 100 µM | TGI [7]: > 100 µM | TGI [8]: > 100 µM | TGI [9]: > 100 µM | TGI [10]: > 100 µM | TGI [11]: > 100 µM | TGI [12]: > 100 µM

CC(C)(N=NC(C)(C)C1=NCCN1)C1=NCCN1
TGI [1]: > 100 µM | TGI [2]: > 100 µM | TGI [3]: > 100 µM | TGI [4]: > 100 µM | GI50 [5]: 9.38 µM and 21.4 µM | TGI [5]: > 100 µM and 60 µM | TGI [6]: > 100 µM | TGI [7]: > 100 µM | TGI [8]: > 100 µM | TGI [9]: > 100 µM | TGI [10]: > 100 µM | TGI [11]: > 100 µM | TGI [12]: > 100 µM

O=[N+]([O-])/C(C(Cl)=C(Cl)Cl)=C(/Sc1ccccc1)N1CCOCC1
TGI [1]: 3.27 µM | TGI [2]: 26.2 µM | TGI [3]: 32.7 µM | TGI [4]: 6.27 µM | TGI [5]: 9.36 µM | TGI [6]: 9.2 µM | TGI [7]: 19.3 µM | TGI [8]: 4.61 µM | TGI [9]: 9.24 µM | TGI [10]: 18.3 µM | TGI [11]: 29.8 µM | TGI [12]: 15 µM

CCC(/C=C/c1ccccc1)=N\NC(=S)N/N=C(/C=C/c1ccccc1)CC
TGI [1]: > 100 µM | TGI [2]: > 100 µM | TGI [3]: > 100 µM | TGI [4]: > 100 µM | TGI [5]: > 100 µM | TGI [6]: > 100 µM | TGI [7]: > 100 µM | TGI [8]: > 100 µM | TGI [9]: > 100 µM | TGI [10]: > 100 µM | TGI [11]: > 100 µM | TGI [12]: > 100 µM

COC(=O)CC1(O)C(C=C(C)C)C(C(=O)OC)C(=O)C(C(=O)OC)C1C(=O)OC (stereo not drawn)
TGI [1]: > 100 µM | TGI [2]: > 100 µM | TGI [3]: > 100 µM | TGI [4]: > 100 µM | TGI [5]: > 100 µM | TGI [6]: > 100 µM | TGI [7]: > 100 µM | TGI [8]: > 100 µM | TGI [9]: > 100 µM | TGI [10]: > 100 µM | TGI [11]: > 100 µM | TGI [12]: > 100 µM

COC(=O)c1cc(C)ccc1CC(Cc1ccccc1C)C(=O)OC (stereo not drawn)
TGI [1]: > 100 µM | TGI [2]: 94.2 µM | TGI [3]: > 100 µM | TGI [4]: 79.7 µM | TGI [5]: 74.1 µM | TGI [6]: 43.8 µM | TGI [7]: > 100 µM | TGI [8]: 24.7 µM | TGI [9]: > 100 µM | TGI [10]: > 100 µM | TGI [11]: > 100 µM | TGI [12]: > 100 µM
